Assay results taken from PubChem BioAssay (NCI).
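Where inhibition never reached the appropriate level, the endpoint shown equals the highest concentration tested. Otherwise, values were interpolated linearly from a five-concentration, 48-hour dose response in 96-well plates. GI50 is the concentration that inhibits growth by half. TGI is the concentration that stops growth completely.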

Tests used:
Experiment in all cases: NCI tumour cell line growth inhibition, 48 h
SN12C renal = tested on: SN12C renal
T-47D breast = tested on: T-47D breast
SK-MEL-2 melanoma = tested on: SK-MEL-2 melanoma
TK-10 renal = tested on: TK-10 renal
SNB-19 CNS = tested on: SNB-19 CNS
NCI-H226 lung = tested on: NCI-H226 lung
UACC-62 melanoma = tested on: UACC-62 melanoma
HOP-62 NSCLC = tested on: HOP-62 NSCLC
786-0 renal = tested on: 786-0 renal
KM12 colon = tested on: KM12 colon
K-562 leukemia = tested on: K-562 leukemia
M14 melanoma = tested on: M14 melanoma
SF-268 CNS = tested on: SF-268 CNS
DU-145 prostate = tested on: DU-145 prostate
NCI/ADR-RES ovarian = tested on: NCI/ADR-RES ovarian
CAKI-1 renal = tested on: CAKI-1 renal
CCRF-CEM leukemia = tested on: CCRF-CEM leukemia
LOX IMVI melanoma = tested on: LOX IMVI melanoma
OVCAR-5 ovarian = tested on: OVCAR-5 ovarian
SK-MEL-28 melanoma = tested on: SK-MEL-28 melanoma
EKVX NSCLC = tested on: EKVX NSCLC
MOLT-4 leukemia = tested on: MOLT-4 leukemia
BT-549 breast = tested on: BT-549 breast
COLO 205 colon = tested on: COLO 205 colon
SF-295 CNS = tested on: SF-295 CNS
UACC-257 melanoma = tested on: UACC-257 melanoma
HCC-2998 colon = tested on: HCC-2998 colon
UO-31 renal = tested on: UO-31 renal
HOP-92 NSCLC = tested on: HOP-92 NSCLC
HCT-15 colon = tested on: HCT-15 colon
OVCAR-4 ovarian = tested on: OVCAR-4 ovarian
HT29 colon = tested on: HT29 colon
MALME-3M melanoma = tested on: MALME-3M melanoma
MCF7 breast = tested on: MCF7 breast
NCI-H522 lung = tested on: NCI-H522 lung
SNB-75 CNS = tested on: SNB-75 CNS
OVCAR-8 ovarian = tested on: OVCAR-8 ovarian
RPMI-8226 leukemia = tested on: RPMI-8226 leukemia
A549 NSCLC = tested on: A549 NSCLC
NCI-H460 lung = tested on: NCI-H460 lung
MDA-MB-435 = tested on: MDA-MB-435
OVCAR-3 ovarian = tested on: OVCAR-3 ovarian
MDA-MB-231 breast = tested on: MDA-MB-231 breast
SR leukemia = tested on: SR leukemia
ACHN renal = tested on: ACHN renal
SF-539 CNS = tested on: SF-539 CNS
IGROV1 ovarian = tested on: IGROV1 ovarian
PC-3 prostate = tested on: PC-3 prostate
SK-OV-3 ovarian = tested on: SK-OV-3 ovarian
NCI-H23 lung = tested on: NCI-H23 lung
U251 CNS = tested on: U251 CNS
RXF 393 renal = tested on: RXF 393 renal
SW-620 colon = tested on: SW-620 colon

`CCCCCCCCCN=C(N)c1ccc(N2CCN(c3ccc(C(N)=NCCCCCCCCC)cc3)CC2)cc1` gave a GI50 (SN12C renal) of 1.52 µM, a TGI (SN12C renal) of 7.85 µM and a GI50 (T-47D breast) of 2.44 µM. For the same compound, the TGI (T-47D breast) was 11.8 µM, the GI50 (SK-MEL-2 melanoma) was 2.88 µM and the TGI (SK-MEL-2 melanoma) was over 50 µM. It also gave a GI50 (TK-10 renal) of 4.3 µM, a TGI (TK-10 renal) of 14.7 µM and a GI50 (SNB-19 CNS) of 2.29 µM. For the same compound, the TGI (SNB-19 CNS) was 15.8 µM, the GI50 (NCI-H226 lung) was 3.77 µM and the TGI (NCI-H226 lung) was over 50 µM. The GI50 (UACC-62 melanoma) was 2.45 µM, the TGI (UACC-62 melanoma) was 22.1 µM and the GI50 (HOP-62 NSCLC) was 2.72 µM. The TGI (HOP-62 NSCLC) was over 50 µM, the GI50 (786-0 renal) was 3.4 µM and the TGI (786-0 renal) was over 50 µM. For the same compound, the GI50 (KM12 colon) was 1.7 µM, the TGI (KM12 colon) was 5.67 µM and the GI50 (K-562 leukemia) was 1.72 µM. It also gave a TGI (K-562 leukemia) of 17 µM, a GI50 (M14 melanoma) of 3.09 µM and a TGI (M14 melanoma) of over 50 µM. The GI50 (SF-268 CNS) was 1.22 µM, the TGI (SF-268 CNS) was 4.04 µM and the GI50 (DU-145 prostate) was 2.35 µM. It also gave a TGI (DU-145 prostate) of 8.06 µM, a GI50 (NCI/ADR-RES ovarian) of 3.56 µM and a TGI (NCI/ADR-RES ovarian) of over 50 µM. For the same compound, the GI50 (CAKI-1 renal) was 1.86 µM, the TGI (CAKI-1 renal) was 8.42 µM and the GI50 (CCRF-CEM leukemia) was 1.77 µM. The TGI (CCRF-CEM leukemia) was 8.34 µM, the GI50 (LOX IMVI melanoma) was 2.1 µM and the TGI (LOX IMVI melanoma) was 10.7 µM. The GI50 (OVCAR-5 ovarian) was 3.13 µM, the TGI (OVCAR-5 ovarian) was 11 µM and the GI50 (SK-MEL-28 melanoma) was 1.6 µM. For the same compound, the TGI (SK-MEL-28 melanoma) was 4.27 µM, the GI50 (EKVX NSCLC) was 1.95 µM and the TGI (EKVX NSCLC) was 7.72 µM. For the same compound, the GI50 (MOLT-4 leukemia) was 1.58 µM, the TGI (MOLT-4 leukemia) was over 50 µM and the GI50 (BT-549 breast) was 1.13 µM. The TGI (BT-549 breast) was 2.71 µM, the GI50 (COLO 205 colon) was 1.78 µM and the TGI (COLO 205 colon) was 7.94 µM. The GI50 (SF-295 CNS) was 1.24 µM, the TGI (SF-295 CNS) was 2.57 µM and the GI50 (UACC-257 melanoma) was 1.2 µM. It also gave a TGI (UACC-257 melanoma) of 3.08 µM, a GI50 (HCC-2998 colon) of 1.82 µM and a TGI (HCC-2998 colon) of 6.14 µM. The GI50 (UO-31 renal) was 3.5 µM, the TGI (UO-31 renal) was over 50 µM and the GI50 (HOP-92 NSCLC) was 4.1 µM. The TGI (HOP-92 NSCLC) was over 50 µM, the GI50 (HCT-15 colon) was 2.05 µM and the TGI (HCT-15 colon) was 13.5 µM. The GI50 (OVCAR-4 ovarian) was 3.86 µM, the TGI (OVCAR-4 ovarian) was over 50 µM and the GI50 (HT29 colon) was 1.3 µM. For the same compound, the TGI (HT29 colon) was 7.4 µM, the GI50 (MALME-3M melanoma) was 1.37 µM and the TGI (MALME-3M melanoma) was 3.74 µM. It also gave a GI50 (MCF7 breast) of 0.704 µM, a TGI (MCF7 breast) of 1.54 µM and a GI50 (NCI-H522 lung) of 2.36 µM. The TGI (NCI-H522 lung) was 21.4 µM, the GI50 (SNB-75 CNS) was 1.1 µM and the TGI (SNB-75 CNS) was 4.75 µM. The GI50 (OVCAR-8 ovarian) was 1.62 µM, the TGI (OVCAR-8 ovarian) was 5.95 µM and the GI50 (RPMI-8226 leukemia) was 1.96 µM. It also gave a TGI (RPMI-8226 leukemia) of over 50 µM, a GI50 (A549 NSCLC) of 1.57 µM and a TGI (A549 NSCLC) of 10.5 µM. The GI50 (NCI-H460 lung) was 1.61 µM, the TGI (NCI-H460 lung) was 5.13 µM and the GI50 (MDA-MB-435) was 1.74 µM. It also gave a TGI (MDA-MB-435) of 5.35 µM, a GI50 (OVCAR-3 ovarian) of 1.1 µM and a TGI (OVCAR-3 ovarian) of 3.83 µM. It also gave a GI50 (MDA-MB-231 breast) of 1.41 µM, a TGI (MDA-MB-231 breast) of 5.59 µM and a GI50 (SR leukemia) of 2.75 µM. The TGI (SR leukemia) was over 50 µM, the GI50 (ACHN renal) was 2.19 µM and the TGI (ACHN renal) was 12.7 µM. It also gave a GI50 (SF-539 CNS) of 2 µM, a TGI (SF-539 CNS) of 4.48 µM and a GI50 (IGROV1 ovarian) of 1.66 µM. For the same compound, the TGI (IGROV1 ovarian) was over 50 µM, the GI50 (PC-3 prostate) was 1.74 µM and the TGI (PC-3 prostate) was 5.87 µM. For the same compound, the GI50 (SK-OV-3 ovarian) was 2.65 µM, the TGI (SK-OV-3 ovarian) was 33.1 µM and the GI50 (NCI-H23 lung) was 1.67 µM. For the same compound, the TGI (NCI-H23 lung) was 6.37 µM, the GI50 (U251 CNS) was 0.518 µM and the TGI (U251 CNS) was 1.41 µM. For the same compound, the GI50 (RXF 393 renal) was 1.04 µM, the TGI (RXF 393 renal) was 3.01 µM and the GI50 (SW-620 colon) was 1.52 µM. The TGI (SW-620 colon) was 3.55 µM.
